Measured values from PubChem BioAssay (NCI).
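Values below derive from 48-hour exposures of cells grown in 96-well plates, with endpoints linearly interpolated between the two concentrations bracketing the appropriate inhibition level. The concentration for 50% growth inhibition is given as GI50. TGI denotes the concentration required for complete inhibition of growth.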

How the values were obtained:
Experiment in all cases: NCI tumour cell line growth inhibition, 48 h
HCC-2998 colon = system: HCC-2998 colon
CCRF-CEM leukemia = system: CCRF-CEM leukemia
HT29 colon = system: HT29 colon
RPMI-8226 leukemia = system: RPMI-8226 leukemia
OVCAR-3 ovarian = system: OVCAR-3 ovarian
SN12C renal = system: SN12C renal
SF-539 CNS = system: SF-539 CNS
MALME-3M melanoma = system: MALME-3M melanoma
MDA-MB-231 breast = system: MDA-MB-231 breast
MDA-N = system: MDA-N
M14 melanoma = system: M14 melanoma
KM12 colon = system: KM12 colon
SK-MEL-28 melanoma = system: SK-MEL-28 melanoma
DU-145 prostate = system: DU-145 prostate
A498 renal = system: A498 renal
EKVX NSCLC = system: EKVX NSCLC
HOP-62 NSCLC = system: HOP-62 NSCLC
SW-620 colon = system: SW-620 colon
OVCAR-5 ovarian = system: OVCAR-5 ovarian
HCT-116 colon = system: HCT-116 colon
SF-295 CNS = system: SF-295 CNS
T-47D breast = system: T-47D breast
NCI-H460 lung = system: NCI-H460 lung
UACC-62 melanoma = system: UACC-62 melanoma
ACHN renal = system: ACHN renal
PC-3 prostate = system: PC-3 prostate
SNB-75 CNS = system: SNB-75 CNS
SK-OV-3 ovarian = system: SK-OV-3 ovarian
SF-268 CNS = system: SF-268 CNS
CAKI-1 renal = system: CAKI-1 renal
NCI-H226 lung = system: NCI-H226 lung
SK-MEL-2 melanoma = system: SK-MEL-2 melanoma
HOP-92 NSCLC = system: HOP-92 NSCLC
NCI/ADR-RES ovarian = system: NCI/ADR-RES ovarian
A549 NSCLC = system: A549 NSCLC
COLO 205 colon = system: COLO 205 colon
UACC-257 melanoma = system: UACC-257 melanoma
MDA-MB-435 = system: MDA-MB-435
786-0 renal = system: 786-0 renal
SNB-19 CNS = system: SNB-19 CNS
TK-10 renal = system: TK-10 renal
SK-MEL-5 melanoma = system: SK-MEL-5 melanoma
MOLT-4 leukemia = system: MOLT-4 leukemia
NCI-H23 lung = system: NCI-H23 lung
U251 CNS = system: U251 CNS
OVCAR-4 ovarian = system: OVCAR-4 ovarian
OVCAR-8 ovarian = system: OVCAR-8 ovarian
HCT-15 colon = system: HCT-15 colon
K-562 leukemia = system: K-562 leukemia
UO-31 renal = system: UO-31 renal
HL-60(TB) leukemia = system: HL-60(TB) leukemia
LOX IMVI melanoma = system: LOX IMVI melanoma
HS 578T breast = system: HS 578T breast
SR leukemia = system: SR leukemia
RXF 393 renal = system: RXF 393 renal
MCF7 breast = system: MCF7 breast
IGROV1 ovarian = system: IGROV1 ovarian
BT-549 breast = system: BT-549 breast
NCI-H522 lung = system: NCI-H522 lung

## C/C(=N\NC(N)=S)c1ccc2c(c1)Sc1ccccc1O2
HCC-2998 colon
  TGI: 4650 nM
CCRF-CEM leukemia
  TGI: > 100000 nM
HT29 colon
  TGI: 5830 nM
RPMI-8226 leukemia
  TGI: 16400 nM
OVCAR-3 ovarian
  TGI: 4520 nM
SN12C renal
  TGI: > 100000 nM
SF-539 CNS
  TGI: 4790 nM
MALME-3M melanoma
  TGI: > 100000 nM
MDA-MB-231 breast
  TGI: > 100000 nM
MDA-N
  TGI: 2310 nM
M14 melanoma
  TGI: > 100000 nM
KM12 colon
  TGI: > 100000 nM
SK-MEL-28 melanoma
  TGI: 69900 nM
DU-145 prostate
  TGI: > 100000 nM
A498 renal
  TGI: 8630 nM
EKVX NSCLC
  TGI: 13600 nM
HOP-62 NSCLC
  TGI: 29000 nM
SW-620 colon
  TGI: > 100000 nM
OVCAR-5 ovarian
  TGI: > 100000 nM
HCT-116 colon
  TGI: 24300 nM
SF-295 CNS
  TGI: > 100000 nM
T-47D breast
  TGI: > 100000 nM
NCI-H460 lung
  TGI: 11800 nM
UACC-62 melanoma
  TGI: 12300 nM
ACHN renal
  TGI: 43700 nM
PC-3 prostate
  TGI: 28800 nM
SNB-75 CNS
  TGI: 7210 nM
SK-OV-3 ovarian
  TGI: 39500 nM
SF-268 CNS
  TGI: 8360 nM
CAKI-1 renal
  TGI: 4370 nM
NCI-H226 lung
  TGI: > 100000 nM
SK-MEL-2 melanoma
  TGI: 6990 nM
HOP-92 NSCLC
  TGI: 28000 nM
NCI/ADR-RES ovarian
  TGI: 10600 nM
A549 NSCLC
  TGI: 13500 nM
COLO 205 colon
  TGI: 7280 nM
UACC-257 melanoma
  TGI: > 100000 nM
MDA-MB-435
  TGI: 950 nM
786-0 renal
  TGI: 25700 nM
SNB-19 CNS
  TGI: > 100000 nM
TK-10 renal
  TGI: 30700 nM
SK-MEL-5 melanoma
  TGI: 6830 nM
MOLT-4 leukemia
  TGI: > 100000 nM
NCI-H23 lung
  TGI: 79100 nM
U251 CNS
  TGI: 11700 nM
OVCAR-4 ovarian
  TGI: 57100 nM
OVCAR-8 ovarian
  TGI: 7160 nM
HCT-15 colon
  TGI: 4630 nM
K-562 leukemia
  TGI: > 100000 nM
UO-31 renal
  TGI: 28300 nM
HL-60(TB) leukemia
  TGI: > 100000 nM
LOX IMVI melanoma
  TGI: 13100 nM
HS 578T breast
  TGI: > 100000 nM
SR leukemia
  TGI: > 100000 nM

## CCNC(=O)C#Cc1ccc2c(C(=Nc3ccc(CN(C)C)cc3)c3ccccc3)c(O)[nH]c2c1
HCC-2998 colon
  GI50: 106 nM
  TGI: 696 nM
CCRF-CEM leukemia
  GI50: 2.04 nM
  TGI: 5580 nM
HT29 colon
  GI50: 13 nM
  TGI: 1390 nM
RPMI-8226 leukemia
  GI50: 434 nM
  TGI: 3190 nM
OVCAR-3 ovarian
  GI50: 752 nM
  TGI: > 10000 nM
SN12C renal
  GI50: 67.1 nM
  TGI: 1590 nM
SF-539 CNS
  GI50: 121 nM
  TGI: 1270 nM
MALME-3M melanoma
  GI50: 3.58 nM
  TGI: 26.8 nM
MDA-MB-231 breast
  GI50: 29.5 nM
  TGI: 502 nM
M14 melanoma
  GI50: 7.82 nM
  TGI: 114 nM
KM12 colon
  GI50: 32.3 nM
  TGI: > 10000 nM
SK-MEL-28 melanoma
  GI50: 9.11 nM
  TGI: 102 nM
DU-145 prostate
  GI50: 1260 nM
  TGI: > 10000 nM
RXF 393 renal
  GI50: 123 nM
  TGI: 703 nM
A498 renal
  GI50: 27.4 nM
  TGI: 179 nM
EKVX NSCLC
  GI50: 470 nM
  TGI: > 10000 nM
HOP-62 NSCLC
  GI50: 109 nM
  TGI: > 3760 nM
SW-620 colon
  GI50: 15.6 nM
  TGI: 1540 nM
OVCAR-5 ovarian
  GI50: 26.2 nM
  TGI: 732 nM
HCT-116 colon
  GI50: 14.7 nM
  TGI: 1070 nM
SF-295 CNS
  GI50: 249 nM
  TGI: 3310 nM
T-47D breast
  GI50: 3210 nM
  TGI: > 6870 nM
NCI-H460 lung
  GI50: 10.6 nM
  TGI: 1960 nM
UACC-62 melanoma
  GI50: 7.09 nM
  TGI: 77.5 nM
ACHN renal
  GI50: 265 nM
  TGI: 2580 nM
PC-3 prostate
  GI50: 238 nM
  TGI: > 4790 nM
SNB-75 CNS
  GI50: 750 nM
  TGI: 2210 nM
SK-OV-3 ovarian
  GI50: 1860 nM
  TGI: > 10000 nM
SF-268 CNS
  GI50: 1350 nM
  TGI: > 9480 nM
CAKI-1 renal
  GI50: 119 nM
  TGI: > 9050 nM
NCI-H226 lung
  GI50: 314 nM
  TGI: > 10000 nM
SK-MEL-2 melanoma
  GI50: 32.3 nM
  TGI: 228 nM
MCF7 breast
  GI50: 45.8 nM
  TGI: 4590 nM
IGROV1 ovarian
  GI50: 51.1 nM
  TGI: > 3290 nM
HOP-92 NSCLC
  GI50: 8.12 nM
  TGI: 53.2 nM
NCI/ADR-RES ovarian
  GI50: 1700 nM
  TGI: > 10000 nM
A549 NSCLC
  GI50: 40.1 nM
  TGI: > 5340 nM
COLO 205 colon
  GI50: 3.63 nM
  TGI: 71.1 nM
UACC-257 melanoma
  GI50: 21.6 nM
  TGI: 114 nM
MDA-MB-435
  GI50: 12.7 nM
  TGI: 2510 nM
BT-549 breast
  GI50: 1510 nM
  TGI: > 10000 nM
786-0 renal
  GI50: 356 nM
  TGI: 2000 nM
SNB-19 CNS
  GI50: 206 nM
  TGI: > 5900 nM
TK-10 renal
  GI50: 593 nM
  TGI: > 5410 nM
SK-MEL-5 melanoma
  GI50: 307 nM
  TGI: 1840 nM
MOLT-4 leukemia
  GI50: 199 nM
  TGI: 2760 nM
NCI-H23 lung
  GI50: 61.4 nM
  TGI: > 4280 nM
U251 CNS
  GI50: 376 nM
  TGI: 2900 nM
OVCAR-4 ovarian
  GI50: 610 nM
  TGI: 7630 nM
OVCAR-8 ovarian
  GI50: 1040 nM
  TGI: > 10000 nM
HCT-15 colon
  GI50: 392 nM
  TGI: 4620 nM
K-562 leukemia
  GI50: 344 nM
  TGI: 3920 nM
UO-31 renal
  GI50: 81.1 nM
  TGI: 1340 nM
HL-60(TB) leukemia
  GI50: 9.76 nM
  TGI: 932 nM
LOX IMVI melanoma
  GI50: 6.7 nM
  TGI: 163 nM
HS 578T breast
  GI50: 291 nM
  TGI: 1660 nM
NCI-H522 lung
  GI50: 1260 nM
  TGI: > 5390 nM
SR leukemia
  GI50: 7.78 nM
  TGI: 2930 nM
